Source: paper PMC11653702, “Targeting the SPC25/RIOK1/MYH9 Axis to Overcome Tumor Stemness and Platinum Resistance in Epithelial Ovarian Cancer” (Advanced Science, 2024)
Peptide text beside a SMILES is read from it.

How the values were obtained:
[1] = test system: EOC organoids (HGS-202, HGS-203, HGS-107); assay: Cell Counting Kit-8 assay in EOC patient-derived organoids; assay type: cell-based; settings: EOC organoids HGS-202, HGS-203, HGS-107, compared with controls
[2] = target: T1, SPC25 (Homo sapiens, UniProt Q9HBM1); assay: Surface plasmon resonance, CBP1 binding to SPC25; settings: SPR, BIAcore T200, CBP1 binding to SPC25; read-out: dissociation constant Kd
T1 sequence (Q9HBM1 1-224): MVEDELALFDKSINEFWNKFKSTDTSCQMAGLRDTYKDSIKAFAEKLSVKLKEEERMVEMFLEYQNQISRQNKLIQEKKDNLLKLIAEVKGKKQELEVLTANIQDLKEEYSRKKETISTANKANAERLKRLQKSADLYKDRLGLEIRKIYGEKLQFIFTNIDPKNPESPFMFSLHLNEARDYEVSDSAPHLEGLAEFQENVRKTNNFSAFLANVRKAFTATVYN
Description: Analysis of Surface Plasmon Resonance: Analysis of Surface Plasmon Resonance Binding kinetics between SPC25 and the indicated peptide-CBP1 were measured by Surface Plasmon Resonance (SPR) using a BIAcore T200 instrument (GE Healthcare, CA, USA). The dissociation constant (Kd) was calculated according to the BIA-evaluation software.

[3] = Serum urea, creatinine, alanine aminotransferase, aspartate aminotransferase (hepatorenal function); settings: for ALT / AST / CRE (creatinine) / UREA: mice under CBP1 treatment, after 6 weeks
Description: Subsequently, we established a BALB/c‐Nude mouse model of EOC by intraperitoneally injecting OVCAR8 cells stably expressing a luciferase gene, as described previously. On reaching a bioluminescence signal of 2 × 10^7 p/s/cm^2/sr, mice were divided into 4 treatment groups: Vehicle, CBP1, CDDP, and CDDP/CBP1 (n = 7 per group; Figure 5I).
H) Serum urea, creatinine, alanine aminotransferase, and aspartate aminotransferase levels in normal and CBP1-treated nude mice assessed to evaluate hepatorenal function. […] Error bars represent the means ± SD of independent experiments; ns denotes not significant. In (A) and (H), two-sided Student’s t test was used.

[4] = Survival of non-tumor-bearing mice on CBP1; assay type: in vivo, BALB/c-Nude mice; parameters: key to Survival status: 0: Alive; 1: Dead; settings: for Survival status / Survival time (Days after CDDP treatment): CBP1 10mg/kg; for Survival status: day 42; for Survival time (Days after CDDP treatment): alive at this day
[5] = 10 mg/kg, i.p., once every 2 days, 6 weeks, BALB/c-Nude mice without tumors

CC[C@H](C)[C@H](NC(=O)[C@H](Cc1ccc(O)cc1)NC(=O)[C@H](C)NC(=O)CNC(=O)CNC(=O)[C@H](Cc1c[nH]c2ccccc12)NC(=O)[C@@H]1CCCN1C(=O)[C@H](CO)NC(=O)[C@@H](NC(=O)[C@H](Cc1ccc(O)cc1)NC(=O)[C@H](CC(C)C)NC(=O)[C@@H](N)Cc1c[nH]cn1)C(C)C)C(=O)N1CCC[C@H]1C(=O)N[C@@H](CCCNC(=N)N)C(=O)N[C@H](C(=O)N[C@@H](CC(C)C)C(=O)N[C@@H](CC(N)=O)C(=O)N[C@@H](CCC(=O)O)C(=O)N[C@H](C(=O)N[C@@H](CCCCN)C(=O)N[C@@H](CC(N)=O)C(=O)N[C@@H](Cc1ccc(O)cc1)C(=O)N[C@@H](CCC(=O)O)C(=O)N[C@@H](CCCNC(=N)N)C(=O)O)C(C)C)[C@@H](C)O [CBP1] (H-HLYVSPWGGAYIPRTLNEVKNYER-OH)
CDDP cytotoxicity in presence of CBP1 [1]: markedly enhanced CDDP cytotoxicity | Kd [2]: 13.3 ± 2.88 µM | hepatorenal toxicity [3, 5]: did not cause considerable hepatorenal toxicity | ALT ([3]; animal #1): 61.601 U/L | AST ([3]; animal #1): 95.798 U/L | CRE (creatinine) ([3]; animal #1): 0.334 mg/dL | UREA ([3]; animal #1): 19.36 mg/dL | ALT ([3]; animal #2): 48.846 U/L | AST ([3]; animal #2): 169.051 U/L | CRE (creatinine) ([3]; animal #2): 0.381 mg/dL | UREA ([3]; animal #2): 24.41 mg/dL | ALT ([3]; animal #3): 37.083 U/L | AST ([3]; animal #3): 149.075 U/L | CRE (creatinine) ([3]; animal #3): 0.362 mg/dL | UREA ([3]; animal #3): 17.46 mg/dL | ALT ([3]; animal #4): 56.136 U/L | AST ([3]; animal #4): 97.689 U/L | CRE (creatinine) ([3]; animal #4): 0.247 mg/dL | UREA ([3]; animal #4): 15.11 mg/dL | ALT ([3]; animal #5): 58.209 U/L | AST ([3]; animal #5): 124.231 U/L | CRE (creatinine) ([3]; animal #5): 0.314 mg/dL | UREA ([3]; animal #5): 16.87 mg/dL | ALT ([3]; animal #6): 57.394 U/L | AST ([3]; animal #6): 120.889 U/L | CRE (creatinine) ([3]; animal #6): 0.253 mg/dL | UREA ([3]; animal #6): 21.13 mg/dL | ALT ([3]; animal #7): 54.623 U/L | AST ([3]; animal #7): 133.397 U/L | CRE (creatinine) ([3]; animal #7): 0.252 mg/dL | UREA ([3]; animal #7): 15.13 mg/dL | effect on survival of normal mice [4, 5]: did not cause considerable hepatorenal toxicity or affect survival in the mice | Survival status ([4]; animal 1): 0 | Survival status ([4]; animal 2): 0 | Survival status ([4]; animal 3): 0 | Survival status ([4]; animal 4): 0 | Survival status ([4]; animal 5): 0 | Survival status ([4]; animal 6): 0 | Survival status ([4]; animal 7): 0 | Survival time (Days after CDDP treatment) ([4]; animal 1): ≥ 42 days | Survival time (Days after CDDP treatment) ([4]; animal 2): ≥ 42 days | Survival time (Days after CDDP treatment) ([4]; animal 3): ≥ 42 days | Survival time (Days after CDDP treatment) ([4]; animal 4): ≥ 42 days | Survival time (Days after CDDP treatment) ([4]; animal 5): ≥ 42 days | Survival time (Days after CDDP treatment) ([4]; animal 6): ≥ 42 days | Survival time (Days after CDDP treatment) ([4]; animal 7): ≥ 42 days
